In the METLIN SMRT retention time set (Domingo-Almenara et al. 2019):

Assay: gradient 5% acetonitrile 3 min, to 50% in 2 min, to 85% in 15 min, held 3 min, 100 µL/min
Settings: column: Zorbax Extend-C18 2.1 x 50 mm; eluents: water / acetonitrile, 0.1% formic acid
Summary of the method: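 Retention time was recorded from adduct peaks, which were picked computationally and each inspected manually. Pure standards ran in mixtures of ~100 molecules on HPLC coupled to a quadrupole time-of-flight mass spectrometer, in positive and negative ionization mode, through a Zorbax Extend-C18 column (2.1 × 50 mm, 1.8 μm) at 100 μL/min. Eluents were water and acetonitrile, each with 0.1% formic acid.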

Which RP-LC retention time does the source give for `Nc1nc(-c2ccccc2)c(C(=O)c2ccccc2)s1` here?
The RP-LC retention time was 706 s.

For `CCCCNS(=O)(=O)c1cc(-c2[nH]ncc2C(=O)N2CCCC2)oc1C`, which RP-LC retention time is on record?
The RP-LC retention time was 668 s.

For `COc1ncccc1CNS(=O)(=O)c1ccccc1`, which RP-LC retention time is on record?
Its RP-LC retention time is 757 s.

Which RP-LC retention time does the source give for `COc1ccc2nc(NC(=O)Cc3csc4nc(-c5ccccc5)cn34)sc2c1` here?
Its RP-LC retention time is 810 s.

For `Cc1cc(C)cc(C(=O)N2CCCC2COc2ccc(C(=O)NC(C)C)cc2)c1` (stereo not given), which RP-LC retention time is on record?
Its RP-LC retention time is 922 s.

With `COC(=O)c1ccc2c(=O)n(CCc3ccccc3)c(N3CCSCC3)nc2c1` as the molecule, how does the RP-LC retention time read?
Its RP-LC retention time is 1150 s.

Which RP-LC retention time does the source give for `Cc1ccc(-c2ccc(=O)n(CCc3nc(-c4ccccc4)no3)n2)cc1C` here?
Its RP-LC retention time is 1050 s.

With `COc1ccc(CN2N=C(C(=O)N3CCCC3)S(=O)(=O)c3ccccc32)cc1` as the molecule, how does the RP-LC retention time read?
The RP-LC retention time was 823 s.

Which RP-LC retention time does the source give for `O=C(N/N=C/c1coc2ccccc2c1=O)c1cccnc1` here?
Its RP-LC retention time is 663 s.

Which RP-LC retention time does the source give for `Cc1cc(NC(=O)CSc2nnc3sc4ccccc4n23)no1` here?
Its RP-LC retention time is 668 s.

Which RP-LC retention time does the source give for `O=C(CN1CCN(Cc2ccc(F)cc2Cl)C1=O)N1CCN(C2CCCCC2)CC1` here?
The RP-LC retention time was 644 s.

For `O=C(Cn1ccc2c(SCc3ccccc3)nccc21)N1CCN(c2ccc(F)cc2)CC1`, which RP-LC retention time is on record?
The RP-LC retention time was 786 s.

Which RP-LC retention time does the source give for `CCc1nc(-c2cc(S(=O)(=O)NCC(=O)NC3CCCC3)c(C)s2)no1` here?
The RP-LC retention time was 843 s.

For `Cc1nc(-c2ccc3c(c2)n(CC(=O)NCc2ccc4c(c2)OCO4)c(=O)n3C(C)C)no1`, which RP-LC retention time is on record?
The RP-LC retention time was 619 s.

With `Cc1ccc(S(=O)(=O)N2CCC3(CC2)NCCN=C3NCc2cccc(F)c2)cc1` as the molecule, how does the RP-LC retention time read?
The RP-LC retention time was 718 s.

Which RP-LC retention time does the source give for `CCCNC(=O)N(CC(=O)N1CCc2sccc2C1COc1ccc(C)cc1)CC1CCCO1` (stereo not given) here?
The RP-LC retention time was 1000 s.

Which RP-LC retention time does the source give for `O=C(OCCCNc1nc(-c2ccc(Cl)cc2)nc2ccccc12)c1cccs1` here?
The RP-LC retention time was 804 s.

Which RP-LC retention time does the source give for `O=c1ccn(-c2ccc(Cl)cc2)nc1-c1nc(-c2cccc(Br)c2)no1` here?
Its RP-LC retention time is 1080 s.

With `CCCn1c(CCc2ccccc2NS(=O)(=O)CCC)nc2ccccc21` as the molecule, how does the RP-LC retention time read?
The RP-LC retention time was 708 s.

For `Cc1nc2nc(-c3ccc(C(C)(C)C)cc3)nn2c(C)c1CC(=O)N1CCOCC1`, which RP-LC retention time is on record?
Its RP-LC retention time is 832 s.

Which RP-LC retention time does the source give for `COc1ccc(-c2cc(C(=O)NC3CCCCC3)nn2C2CCS(=O)(=O)C2)cc1` (stereo not given) here?
The RP-LC retention time was 885 s.

With `CC(C)c1cc(N2CCN(C(=O)c3ccccc3)CC2)nc2nncn12` as the molecule, how does the RP-LC retention time read?
Its RP-LC retention time is 594 s.

Which RP-LC retention time does the source give for `COCC1CN(C(=O)c2ccc(Cc3c(C)noc3C)o2)CC12CCNCC2` (stereo not given) here?
Its RP-LC retention time is 586 s.

With `O=c1c2cc(-c3ccc(F)cc3)nn2ccn1CC(O)c1ccc(F)cc1` (stereo not given) as the molecule, how does the RP-LC retention time read?
Its RP-LC retention time is 859 s.

Which RP-LC retention time does the source give for `CCn1c(CN(C)C(=O)Nc2ccc(Br)cc2F)nc2cc(C(=O)N(C)C)ccc21` here?
The RP-LC retention time was 650 s.

For `CN1CCCN(C(=O)CCc2ccc3c(ccn3C)c2)CC1`, which RP-LC retention time is on record?
Its RP-LC retention time is 605 s.

For `O=C(COc1ccc(F)cc1)N1CCCCC1CCN1CCCCC1` (stereo not given), which RP-LC retention time is on record?
Its RP-LC retention time is 648 s.

With `CN1C(=O)[C@H]2CN(Cc3cccc(C#N)c3)C[C@H]2C1=O` as the molecule, how does the RP-LC retention time read?
Its RP-LC retention time is 531 s.

Which RP-LC retention time does the source give for `COc1ccc(OC)c(CCN2CC(=O)N(c3cccc(C)c3)[C@@H]3CS(=O)(=O)C[C@@H]32)c1` here?
The RP-LC retention time was 848 s.

With `O=C(Cn1c(=O)n(C2CC2)c(=O)c2nscc21)N1CCN(c2ccccc2F)CC1` as the molecule, how does the RP-LC retention time read?
Its RP-LC retention time is 713 s.

For `CCN1CCCC1CNC(=O)CC1CCN(S(=O)(=O)c2ccc3c(c2)CCN3C(C)=O)CC1` (stereo not given), which RP-LC retention time is on record?
The RP-LC retention time was 597 s.

For `Cn1c(C(=O)NCCCN2CCC(Cc3ccccc3)CC2)cc2c(=O)n(C)c3ccccc3c21`, which RP-LC retention time is on record?
The RP-LC retention time was 707 s.

For `CSc1cccc(NC(=O)CN2C(=O)CCn3nc(-c4cn(C)c5ccccc45)cc32)c1`, which RP-LC retention time is on record?
The RP-LC retention time was 902 s.

Which RP-LC retention time does the source give for `COc1cccc(N2CCN(S(=O)(=O)c3cn(C(C)C)c4ncccc34)CC2)c1` here?
The RP-LC retention time was 1060 s.

With `COc1ccc(N2CCN(C(=O)C3CCCN(c4ncnc5c4nc4n5CCCCC4)C3)CC2)cc1` (stereo not given) as the molecule, how does the RP-LC retention time read?
The RP-LC retention time was 738 s.

For `CCN1C(=O)Cc2ccccc2C1C(=O)NCc1cccs1` (stereo not given), which RP-LC retention time is on record?
Its RP-LC retention time is 716 s.

With `CN(C)C(=O)c1csc(S(=O)(=O)N2CCC(C(=O)Nc3ccc(F)cc3Cl)CC2)c1` as the molecule, how does the RP-LC retention time read?
The RP-LC retention time was 792 s.

Which RP-LC retention time does the source give for `C=CCNC(=O)C1CCN(C(=O)Nc2ccc(NC(=O)Nc3ccccc3)cc2)CC1` here?
Its RP-LC retention time is 679 s.

With `CC(C)(C)NC(=O)N1[C@H]2CC[C@@H]1c1cnc(-c3ccccc3)nc1C2` as the molecule, how does the RP-LC retention time read?
The RP-LC retention time was 865 s.

Which RP-LC retention time does the source give for `Ic1ccc(N2CCN(Cc3c[nH]c4ncccc34)CC2)cc1` here?
Its RP-LC retention time is 727 s.

For `CC(C)CNC(=O)c1cc2c(s1)N(CC1CC1)CCCC2`, which RP-LC retention time is on record?
The RP-LC retention time was 1040 s.

With `COC(=O)c1cc2c(=O)n(Cc3ccc(OC)cc3)ccc2nc1C` as the molecule, how does the RP-LC retention time read?
Its RP-LC retention time is 836 s.

Which RP-LC retention time does the source give for `CCN(CC)CCCC(C)Nc1nc(C)cc(Nc2ccc3nc(C)cc(N)c3c2)n1` (stereo not given) here?
The RP-LC retention time was 568 s.

For `CCOc1ccccc1-c1nc(-c2cn(Cc3cccc(F)c3)nn2)no1`, which RP-LC retention time is on record?
The RP-LC retention time was 1010 s.

For `Cc1cc(F)ccc1NC(=O)c1cn2c(n1)CSCC2`, which RP-LC retention time is on record?
The RP-LC retention time was 728 s.

With `COC(=O)c1ccc(NC(=O)N2CCCC2c2ccc(OC)cc2)cc1` (stereo not given) as the molecule, how does the RP-LC retention time read?
The RP-LC retention time was 906 s.

For `Cc1cc(C)n(Cc2nc(-c3ccc(NC(=O)Cc4ccc(F)cc4)cc3)oc2C)n1`, which RP-LC retention time is on record?
Its RP-LC retention time is 917 s.

For `CCC(C)(C)N=C(NC#N)Nc1cccnc1`, which RP-LC retention time is on record?
Its RP-LC retention time is 689 s.

Which RP-LC retention time does the source give for `O=C(Cn1nc2c(cc1=O)CCCC2)Nc1nc(-c2ccc3c(c2)OCO3)cs1` here?
The RP-LC retention time was 851 s.

For `COc1ccc(-c2nnc(N3CCC(C(=O)NCC4CCCCC4)CC3)o2)cc1`, which RP-LC retention time is on record?
The RP-LC retention time was 887 s.

For `CC1(C)CCC[C@@](C)([C@H]2CC[C@]3(C)[C@@H]2[C@H](O)C[C@@H]2[C@@]4(C)CC[C@H](O)C(C)(C)[C@@H]4[C@@H](O)C[C@]23C)O1`, which RP-LC retention time is on record?
The RP-LC retention time was 1150 s.

With `C=CCN1CCN(C(=O)C2=NN(c3ccc(Cl)cc3)c3ncccc3S2(=O)=O)CC1` as the molecule, how does the RP-LC retention time read?
The RP-LC retention time was 660 s.

Which RP-LC retention time does the source give for `Cc1noc(-c2ccc(-n3cnc(C(=O)NC(C)c4ccc(F)cc4)c3)nc2)n1` (stereo not given) here?
The RP-LC retention time was 862 s.

Which RP-LC retention time does the source give for `Cc1cccc(S(=O)(=O)N2CCC3(C2)C(=O)N(C)c2ccccc23)c1` (stereo not given) here?
Its RP-LC retention time is 910 s.

With `CCCCN(C(=O)c1ccc(S(=O)(=O)N2CCOCC2)cc1)C1CCS(=O)(=O)C1` (stereo not given) as the molecule, how does the RP-LC retention time read?
Its RP-LC retention time is 687 s.

For `CCCCN(CCNC(=O)C1CCCN(c2ncnc3c2nc2n3CCCCC2)C1)Cc1ccco1` (stereo not given), which RP-LC retention time is on record?
The RP-LC retention time was 656 s.

For `O=C(c1ccsc1)N1CCN(c2nnc3c(Cl)cccn23)CC1`, which RP-LC retention time is on record?
Its RP-LC retention time is 635 s.

For `CCc1noc(NC(C)=O)c1-c1ccc(OC)c(S(=O)(=O)NC2CCCCC2)c1`, which RP-LC retention time is on record?
The RP-LC retention time was 804 s.

With `COc1ccccc1-c1nnc(-c2ccc(Cl)c(S(=O)(=O)N(C)C)c2)o1` as the molecule, how does the RP-LC retention time read?
The RP-LC retention time was 913 s.

For `COc1cccc(-c2nc(-c3ccc(NS(=O)(=O)c4cccs4)cc3)no2)c1OC`, which RP-LC retention time is on record?
The RP-LC retention time was 1040 s.

With `Cc1noc2ncn(CC(=O)NCCCc3ccccc3)c(=O)c12` as the molecule, how does the RP-LC retention time read?
The RP-LC retention time was 764 s.

With `Cc1ccc(CNC(=O)N2CCC3(CC2)NC(=O)c2cccc(Cl)c2N3)cc1` as the molecule, how does the RP-LC retention time read?
The RP-LC retention time was 773 s.

With `COc1cc(-c2noc(Cn3ccnc3C)n2)cc(OC)c1OC` as the molecule, how does the RP-LC retention time read?
Its RP-LC retention time is 596 s.

Which RP-LC retention time does the source give for `CCC(C)n1c(=O)c2ccccc2n(Cc2nc(-c3ccc(Cl)cc3)no2)c1=O` (stereo not given) here?
Its RP-LC retention time is 1280 s.

With `O=C(Nc1ccccc1Br)c1ccc(OC(F)F)cc1` as the molecule, how does the RP-LC retention time read?
Its RP-LC retention time is 914 s.
